In the oligonucleotide strings, read from the 5' end, every base follows the letter of its sugar. An asterisk marks phosphorothioate; unmarked linkages are phosphodiester. Other units and linkages are bracketed, terminal groups are in braces. A string of capitals states the bases alone. e = 2'-O-(2-methoxyethyl) (MOE); [5mC] = 5-methylcytosine; d = 2'-deoxy (DNA)
Key:
[1] = tested on: BJ, B16-F10, T47D, T47Dp53 and HeLa cells; experiment: Cell cycle assay (propidium iodide flow cytometry), cell line panel; assay type: cell-based; conditions: 150 nM, 72 hours (Table 29)
[2] = tested on: BJ cells; experiment: Cell cycle assay in BJ cells; assay type: cell-based, human; conditions: 200 nM, 48 hours, relative to untreated control
Method: BJ cells were routinely cultured in MEM high glucose with 2 mM L-glutamine and Earle's BSS adjusted to contain 1.5 g/L sodium bicarbonate and supplemented with 10% fetal bovine serum, 0.1 mM non-essential amino acids and 1.0 mM sodium pyruvate (all media and supplements from Invitrogen Life Technologies, Carlsbad, Calif.). B16-F10 cells were routinely cultured in DMEM high glucose (Invitrogen Life Technologies, Carlsbad, Calif.) supplemented with 10% fetal bovine serum (Invitrogen Life Technologies, Carlsbad, Calif.). T47D cells were cultured in DMEM High glucose media (Invitrogen Life Technologies, Carlsbad, Calif.) supplemented with 10% fetal bovine serum. […] Cells were plated on collagen-coated 24-well plates (Falcon-Primaria #3047, BD Biosciences, Bedford, Mass.) at approximately 50,000 cells per well and allowed to attach to wells overnight.
In further studies, additional cell lines were treated with oligomeric compounds targeted against miRNAs to assess the effects of each oligomeric compound on cell cycling. BJ, B16, T47D, and HeLa cells were cultured and transfected as described above. […] T47Dp53 cells are T47D cells that have been transfected with and selected for maintenance of a plasmid that expresses a wildtype copy of the p53 gene (for example, pCMV-p53; Clontech, Palo Alto, Calif.), using standard laboratory procedures. BJ cells were treated with 200 nM of each oligomeric compound, and T47D, T47Dp53, HeLa, and B16 cells were treated with 150 nM of each oligomeric compound. The human foreskin fibroblast BJ cell line represents a non-cancer cell line, while HeLa, T47D, T47Dp53 cells and the mouse melanoma cell line B16-F10 represent cancerous cell lines. For comparison, oligomeric compounds ISIS 183891 (SEQ ID NO: 847) and ISIS 285717 ([…]; herein incorporated as SEQ ID NO: 857), both targeting the kinesin-like 1/Eg5 mRNA, involved in cell cycling, were used as positive controls. The random-mer ISIS 29848 was used as a negative control. Additionally, the oligomeric compounds ISIS Number 25690 ([…]; herein incorporated as SEQ ID NO: 858) and ISIS Number 25691 ([…]; herein incorporated as SEQ ID NO: 859), targeted to nucleotides 3051-3070 and 3085-3104, respectively, of the mRNA encoding the Drosha RNase III (GenBank Accession NM_013235.2, incorporated herein as SEQ ID NO: 860) were also tested. ISIS Number 25690 and ISIS Number 25691 are 5-10-52′-MOE gapmer compounds, 20 nucleotides in length, with phosphorothioate internucleoside linkages throughout the oligomeric compound. All cytidine residues are 5-methylcytidines. Transfections were performed using the methods described herein. Cells were prepared for flow cytometry 48-hours after oligonucleotide treatment. Results of these studies are shown in Table 35, where data are expressed as percentage of cells in each phase relative to the untreated control cells in that phase.

[3] = tested on: T47D cells; experiment: Cell cycle assay in T47D cells; assay type: cell-based, human; conditions: 150 nM, 48 hours, relative to untreated control

Substance: CTAGTGGTCCTAAACATTTCAC (chemistry not given here) [ISIS 327878, uniform 2′-MOE PS; targets mir-203]
- percentage of cells in the G2/M phase [1]: increased percentage of cells in the G2/M phase
- percentage of cells with hypodiploid DNA content (subG1) [1]: increased percentage of cells with hypodiploid DNA content

Substance: 328403 (antisense eA*eG*eG*e[5mC]*e[5mC]*dT*dA*dT*dT*d[5mC]*d[5mC]*dT*dG*dT*dA*eG*e[5mC]*eA*eA*eA) [compound 328403]
- % cells in cell cycle phase G1 [2]: 102%
- % cells in cell cycle phase G2/M [2]: 92%
- % cells in cell cycle phase S [2]: 95%
- % cells in cell cycle phase aneuploid [2]: 114%
- % cells in cell cycle phase subG1 [2]: 81%
- % cells in cell cycle phase G1 [3]: 104%
- % cells in cell cycle phase G2/M [3]: 89%
- % cells in cell cycle phase S [3]: 112%
- % cells in cell cycle phase aneuploid [3]: 175%
- % cells in cell cycle phase subG1 [3]: 49%

Source: patent publication US8178506B2, “Oligomeric compounds and compositions for use in modulation of small non-coding RNAs” (Regulus Therapeutics Inc., priority 2003, dated 2012)
